Results: US20220296597A1, “USE OF A NEUTROPHIL ELASTASE INHIBITOR IN LUNG DISEASE” (pH Pharma Co., Ltd., priority 2019, published 2022)
Read-outs that look alike come from different tables or passages of the source.

Experiments:
[1] = non-CF BE patients, 28 days, cited from earlier work
[2] = Hygroscopicity of the drug substance; format: physicochemical; conditions: normal storage conditions
[3] = Solubility of the drug substance; format: physicochemical
[4] = healthy subjects, cited from earlier work
[5] = Example 2 Phase 1 single-ascending dose study in healthy subjects; format: in vivo, human
Source text: Following Screening, subjects received single doses of study drug and were monitored during an in-clinic period and an out-patient follow-up period. Subjects were confined to the study site for Study Days −2 through 7 to collect PK and safety assessments. Following discharge from the study site on Study Day 7, subjects returned to the study site on Study Days 14, 21, 28, and 35.

hygroscopicity [2]: not hygroscopic
solubility in acetone ([3]; acetone): soluble
solubility in ethanol ([3]; ethanol): very slightly soluble
solubility in water ([3]; water): practically insoluble
subjects with headache ([5]; 36 received Compound 1, single doses 1 to 40 mg): one
exposure (AUC and Cmax) with dose ([5]; single doses 1 to 40 mg): proportional increases
SMILES: CC1=C(C#N)[C@@H](c2ccc(C#N)cc2S(C)(=O)=O)N(C)C(=O)N1c1cccc(C(F)(F)F)c1 [Compound 1, (4S)-4-[4-cyano-2-(methylsulfonyl)phenyl]-3,6-dimethyl-2-oxo-1-[3-(trifluoromethyl)phenyl]-1,2,3,4-tetrahydropyrimidine-5-carbonitrile]
safety and tolerability ([1]; 1.0 mg oral IR tablet): generally safe and well tolerated
SAEs attributed to the drug ([1]; 1.0 mg oral): no SAEs were attributed by the investigator to the drug
study drug-induced laboratory parameter or ECG effects ([1]; 1.0 mg oral): No safety signals
study drug-induced laboratory or ECG abnormalities ([4]; Phase 1 studies): No safety signals
safety and tolerability ([4]; single and repeated doses up to 1 mg for up to 14 days): safe and well tolerated
serious adverse events ([4]; three Phase 1 studies): no serious AEs (SAEs) were reported
AE rate compared with placebo ([5]; single doses 1 to 40 mg): somewhat lower than that in the control (placebo) subjects
effects on laboratory safety evaluations (clinical chemistry and hematology) ([5]; single doses 1 to 40 mg): no clear effects
serious AEs ([5]; single doses 1 to 40 mg): no serious AEs
